The results in this text go back to ChEMBL document CHEMBL4673383, “Discovery of a Pyrimidothiazolodiazepinone as a Potent and Selective Focal Adhesion Kinase (FAK) Inhibitor” (ACS Med Chem Lett, 2021).

Calls of active or inactive are those of the source. The rule behind the calls is not given here. Where only a bound is given, the exact number is not on record here.

The target of series [1] is Focal adhesion kinase 1 (Homo sapiens, UniProt Q05397). Put plainly: Inhibition of Focal adhesion kinase (unknown origin) using Tyr 07 peptide substrate incubated for 60 mins at room temperature followed by 60 mins development reaction measured fluorescence by Z-LYTE assay.
Series [2] deals with MDA-MB-231. Put plainly: Antiproliferative activity against human MDA-MB-231 cells assessed as reduction in cell viability incubated for 120 hrs using ultra-low adherent 3D-spheroids by CellTiter-glo assay. The class given is functional, cell-based. The following applies: MDA-MB-231, 120 h.
The test system of series [3] is MDA-MB-231. Put plainly: Antiproliferative activity against human MDA-MB-231 cells cultured as 3D-spheroids assessed as reduction in cell viability by Celltiter-Glo assay. The class given is functional, cell-based. On the technique in general: Cellular ATP, detected with luciferase, serves as a proxy for viable cell number.
For series [4], the system named is MDA-MB-231. Put plainly: Antiproliferative activity against human MDA-MB-231 cells cultured as 2D-adherent monolayer assessed as reduction in cell viability by Celltiter-Glo assay. The class given is functional, cell-based.
Series [5] is described as follows: Apparent permeability of the compound across apical to basolateral side in human Caco-2 cells. The class given is ADME, cell-based.
Series [6] can be described thus: Efflux ratio of apparent permeability in human Caco-2 cells. The class given is ADME, cell-based.
Series [7] is described as follows: Half life in C57BI/6 male mouse at 2 mg/kg, iv. The class given is ADME, organism-based. The following applies: C57BL/6, mouse, in vivo.
The target of series [8] is Serine/threonine-protein kinase PLK1 (Homo sapiens) (UniProt P53350). Description: Inhibition of PLK1 (unknown origin) assessed as cell cycle disruption.
In series [9] the test system is HT-29. Put plainly: Antiproliferative activity against human HT-29 cells cultured as 3D-spheroids assessed as reduction in cell viability by Celltiter-Glo assay. The class given is functional, cell-based.
The nature of series [10]: Tmax in C57BI/6 male mouse at 10 mg/kg, po. The class given is ADME, organism-based. The following applies: C57BL/6, mouse, in vivo.
Series [11] can be described thus: Oral bioavailability in C57BI/6 male mouse at 10 mg/kg. The class given is ADME, organism-based. The following applies: C57BL/6, mouse, in vivo.
A short description of series [12]: AUC(infinity) in C57BI/6 male mouse at 10 mg/kg, po. The class given is ADME, organism-based. Details: route oral, time infinity, dose 10 mg/kg. The note with it: C57BL/6, mouse, in vivo.
Series [13] concerns the target Focal adhesion kinase 1 (Mus musculus) (UniProt P34152). Put plainly: Inhibition of FAK in CDH1-/- RHOAY42C/+ mouse gastric cancer organoid model assessed as […] phosphorylation at 0.1 to 20 uM incubated for 24 hrs by immunoblot analysis. The class given is tissue-based. The following applies: Stomach, dose 0.1-20 µM. (In general: Immunoblotting shows a protein as a band on a membrane.)

Series [14] can be described thus: Clearance in C57BI/6 male mouse at 2 mg/kg, iv. The class given is ADME, organism-based. The following applies: C57BL/6, mouse, in vivo.
The nature of series [15]: Volume of distribution at steady-state in C57BI/6 male mouse at 2 mg/kg, iv. The class given is ADME, organism-based. The note with it: C57BL/6, mouse, in vivo, read-out: Vdss.
A short description of series [16]: Cmax in C57BI/6 male mouse at 10 mg/kg, po. The class given is ADME, organism-based. Details: route oral, dose 10 mg/kg. The following applies: C57BL/6, mouse, in vivo.
Series [17] is filed under the species Homo sapiens. Put plainly: Antiproliferative activity against human gastric organoid assessed as reduction in cell viability by Celltiter-Glo assay. The class given is functional, tissue-based. The note with it: Stomach.
Series [18] has as its target Focal adhesion kinase 1 (Mus musculus) (UniProt P34152). Description: Inhibition of FAK in mouse gastric organoid by Immunoblotting.
Series [19] has as its system MDA-MB-231. Description: Inhibition of cell migration in human MDA-MB-231 cells incubated for 24 hrs by microscopy method. The class given is functional, cell-based.
For series [20], the system named is HT-29. Put plainly: Antiproliferative activity against human HT-29 cells cultured as 2D-adherent monolayer assessed as reduction in cell viability by Celltiter-Glo assay. The class given is functional, cell-based.
Series [21] has as its target Focal adhesion kinase 1 (Mus musculus) (UniProt P34152). Put plainly: Inhibition of FAK in CDH1-/- RHOAY42C/+ mouse gastric cancer organoid model assessed as […] phosphorylation at 5 uM incubated for 24 hrs by immunoblot analysis. The class given is tissue-based. The note with it: Stomach.
Series [22] shares this target. Description: Inhibition of FAK in CDH1-/- RHOAY42C/+ mouse gastric cancer organoid model assessed as pFAY Y397 phosphorylation at 5 uM incubated for 24 hrs by immunoblot analysis. The class given is tissue-based. The note with it: Stomach.
The target is the same in series [23]. Description: Inhibition of FAK in CDH1-/- RHOAY42C/+ mouse gastric cancer organoid model assessed as nonphosphorylated YAP at 0.1 to 20 uM incubated for 24 hrs by immunoblot analysis. The note with it: Stomach, dose 0.1-20 µM. The class given is tissue-based.
The species entered for series [24] is Mus musculus. Description: Antiproliferative activity against CDH1-/-RHOAY42C/+ mouse diffuse gastric cancer organoid model assessed as reduction in cell viability at 5 uM. The note with it: Stomach. The class given is functional, tissue-based.
Series [25] addresses Focal adhesion kinase 1 (Mus musculus) (UniProt P34152). Description: Inhibition of FAK in CDH1-/- RHOAY42C/+ mouse gastric cancer organoid model assessed as total YAP/TAZ level at 5 uM incubated for 24 hrs by immunoblot analysis. The class given is tissue-based. The following applies: Stomach.
Series [26] deals with Protein-tyrosine kinase 2-beta (Homo sapiens, UniProt Q14289). Put plainly: Inhibition of Pyk2 (unknown origin).
Series [27] deals with Glycogen synthase kinase-3 beta (Homo sapiens, UniProt P49841). Description: Inhibition of human GSK3beta.
Series [28] concerns the target CDK7/Cyclin H/MNAT1 (Homo sapiens, UniProt P50613). Description: Inhibition of human CDK7/cyclinH/MAT1. The class given is protein-complex assay.
Series [29] has as its target Cyclin-dependent kinase 1/cyclin B1 (Homo sapiens, UniProt P06493). Put plainly: Inhibition of human CDK1/cyclinB. The class given is protein-complex assay.

Focal adhesion kinase 1 (Mus musculus), sequence (P34152 whole entry): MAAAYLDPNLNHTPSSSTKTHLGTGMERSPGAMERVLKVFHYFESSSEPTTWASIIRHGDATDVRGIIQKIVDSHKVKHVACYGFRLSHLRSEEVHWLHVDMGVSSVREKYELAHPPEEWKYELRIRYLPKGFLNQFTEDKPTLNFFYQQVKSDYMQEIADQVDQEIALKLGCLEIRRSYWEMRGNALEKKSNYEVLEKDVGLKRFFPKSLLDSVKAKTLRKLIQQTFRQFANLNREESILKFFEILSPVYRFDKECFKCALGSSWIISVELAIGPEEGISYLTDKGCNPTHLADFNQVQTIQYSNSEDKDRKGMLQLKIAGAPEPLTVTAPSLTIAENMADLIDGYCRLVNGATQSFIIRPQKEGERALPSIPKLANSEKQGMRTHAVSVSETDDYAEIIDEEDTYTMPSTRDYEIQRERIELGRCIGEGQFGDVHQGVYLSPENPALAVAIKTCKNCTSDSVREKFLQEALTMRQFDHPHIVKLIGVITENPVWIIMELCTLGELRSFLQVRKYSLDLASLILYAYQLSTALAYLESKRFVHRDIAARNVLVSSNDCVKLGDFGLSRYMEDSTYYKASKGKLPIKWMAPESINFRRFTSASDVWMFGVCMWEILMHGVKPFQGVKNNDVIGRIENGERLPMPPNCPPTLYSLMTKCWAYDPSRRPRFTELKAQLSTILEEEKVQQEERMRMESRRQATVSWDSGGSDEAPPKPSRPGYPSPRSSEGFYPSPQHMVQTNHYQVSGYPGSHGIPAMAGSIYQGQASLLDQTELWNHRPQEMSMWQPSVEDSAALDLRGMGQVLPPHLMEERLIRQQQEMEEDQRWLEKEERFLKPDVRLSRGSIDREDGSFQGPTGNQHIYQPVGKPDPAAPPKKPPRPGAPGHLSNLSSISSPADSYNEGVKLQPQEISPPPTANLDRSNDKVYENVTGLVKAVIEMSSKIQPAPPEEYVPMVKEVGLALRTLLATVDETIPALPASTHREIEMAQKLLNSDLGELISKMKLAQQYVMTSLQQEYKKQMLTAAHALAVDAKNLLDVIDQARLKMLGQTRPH
Focal adhesion kinase 1, sequence (Q05397 whole entry): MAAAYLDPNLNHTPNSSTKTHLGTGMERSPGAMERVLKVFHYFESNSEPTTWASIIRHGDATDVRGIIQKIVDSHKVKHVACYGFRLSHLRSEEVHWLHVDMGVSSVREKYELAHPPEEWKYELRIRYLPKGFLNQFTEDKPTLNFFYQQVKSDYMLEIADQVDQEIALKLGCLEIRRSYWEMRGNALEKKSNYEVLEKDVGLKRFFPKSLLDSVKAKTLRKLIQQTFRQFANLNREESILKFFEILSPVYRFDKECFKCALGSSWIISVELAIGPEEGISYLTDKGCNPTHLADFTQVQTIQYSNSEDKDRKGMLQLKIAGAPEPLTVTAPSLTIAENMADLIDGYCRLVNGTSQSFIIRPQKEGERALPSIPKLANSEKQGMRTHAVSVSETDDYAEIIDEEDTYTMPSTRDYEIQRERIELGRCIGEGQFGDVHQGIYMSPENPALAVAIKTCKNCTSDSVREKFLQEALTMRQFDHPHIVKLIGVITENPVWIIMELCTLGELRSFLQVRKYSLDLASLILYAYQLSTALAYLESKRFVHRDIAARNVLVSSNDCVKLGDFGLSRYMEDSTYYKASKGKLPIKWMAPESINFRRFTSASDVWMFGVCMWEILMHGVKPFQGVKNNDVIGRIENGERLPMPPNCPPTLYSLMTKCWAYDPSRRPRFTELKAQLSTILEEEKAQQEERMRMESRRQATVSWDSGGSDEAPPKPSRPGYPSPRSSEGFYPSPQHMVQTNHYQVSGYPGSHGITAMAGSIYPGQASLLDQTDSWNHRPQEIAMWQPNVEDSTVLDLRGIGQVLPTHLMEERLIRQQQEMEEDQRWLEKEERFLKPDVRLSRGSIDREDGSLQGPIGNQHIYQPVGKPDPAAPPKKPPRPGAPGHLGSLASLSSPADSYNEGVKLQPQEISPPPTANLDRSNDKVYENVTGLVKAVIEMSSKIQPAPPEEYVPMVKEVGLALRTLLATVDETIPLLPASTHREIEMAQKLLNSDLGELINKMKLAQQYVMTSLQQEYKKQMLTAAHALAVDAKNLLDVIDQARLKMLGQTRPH
Glycogen synthase kinase-3 beta, sequence (P49841 whole entry): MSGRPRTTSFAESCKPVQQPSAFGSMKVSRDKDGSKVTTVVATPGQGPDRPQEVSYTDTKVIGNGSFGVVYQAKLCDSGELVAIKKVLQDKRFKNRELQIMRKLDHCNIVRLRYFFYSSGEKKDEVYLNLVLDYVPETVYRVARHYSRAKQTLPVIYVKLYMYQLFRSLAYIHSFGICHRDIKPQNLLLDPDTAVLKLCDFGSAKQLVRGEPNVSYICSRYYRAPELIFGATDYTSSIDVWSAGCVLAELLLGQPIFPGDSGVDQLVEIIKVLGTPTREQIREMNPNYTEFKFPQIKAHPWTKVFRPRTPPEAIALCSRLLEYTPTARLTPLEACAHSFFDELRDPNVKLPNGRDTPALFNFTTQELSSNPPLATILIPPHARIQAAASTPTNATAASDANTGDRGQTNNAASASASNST
Serine/threonine-protein kinase PLK1 (Homo sapiens), sequence (P53350 whole entry): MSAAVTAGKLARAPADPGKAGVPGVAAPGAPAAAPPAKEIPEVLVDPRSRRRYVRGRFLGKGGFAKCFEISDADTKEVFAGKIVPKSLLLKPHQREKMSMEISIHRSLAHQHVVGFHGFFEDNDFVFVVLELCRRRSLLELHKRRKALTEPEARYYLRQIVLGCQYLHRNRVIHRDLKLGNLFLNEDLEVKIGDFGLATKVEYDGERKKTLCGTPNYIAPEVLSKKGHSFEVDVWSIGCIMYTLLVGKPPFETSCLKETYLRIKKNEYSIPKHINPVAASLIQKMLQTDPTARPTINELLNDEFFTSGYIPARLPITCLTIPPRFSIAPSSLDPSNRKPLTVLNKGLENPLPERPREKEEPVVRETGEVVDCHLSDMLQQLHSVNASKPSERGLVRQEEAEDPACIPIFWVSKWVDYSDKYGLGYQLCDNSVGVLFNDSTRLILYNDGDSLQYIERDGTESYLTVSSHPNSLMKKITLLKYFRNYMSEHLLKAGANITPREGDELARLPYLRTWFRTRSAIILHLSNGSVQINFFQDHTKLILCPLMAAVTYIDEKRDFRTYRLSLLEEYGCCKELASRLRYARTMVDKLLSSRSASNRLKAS
Protein-tyrosine kinase 2-beta, sequence (Q14289 whole entry): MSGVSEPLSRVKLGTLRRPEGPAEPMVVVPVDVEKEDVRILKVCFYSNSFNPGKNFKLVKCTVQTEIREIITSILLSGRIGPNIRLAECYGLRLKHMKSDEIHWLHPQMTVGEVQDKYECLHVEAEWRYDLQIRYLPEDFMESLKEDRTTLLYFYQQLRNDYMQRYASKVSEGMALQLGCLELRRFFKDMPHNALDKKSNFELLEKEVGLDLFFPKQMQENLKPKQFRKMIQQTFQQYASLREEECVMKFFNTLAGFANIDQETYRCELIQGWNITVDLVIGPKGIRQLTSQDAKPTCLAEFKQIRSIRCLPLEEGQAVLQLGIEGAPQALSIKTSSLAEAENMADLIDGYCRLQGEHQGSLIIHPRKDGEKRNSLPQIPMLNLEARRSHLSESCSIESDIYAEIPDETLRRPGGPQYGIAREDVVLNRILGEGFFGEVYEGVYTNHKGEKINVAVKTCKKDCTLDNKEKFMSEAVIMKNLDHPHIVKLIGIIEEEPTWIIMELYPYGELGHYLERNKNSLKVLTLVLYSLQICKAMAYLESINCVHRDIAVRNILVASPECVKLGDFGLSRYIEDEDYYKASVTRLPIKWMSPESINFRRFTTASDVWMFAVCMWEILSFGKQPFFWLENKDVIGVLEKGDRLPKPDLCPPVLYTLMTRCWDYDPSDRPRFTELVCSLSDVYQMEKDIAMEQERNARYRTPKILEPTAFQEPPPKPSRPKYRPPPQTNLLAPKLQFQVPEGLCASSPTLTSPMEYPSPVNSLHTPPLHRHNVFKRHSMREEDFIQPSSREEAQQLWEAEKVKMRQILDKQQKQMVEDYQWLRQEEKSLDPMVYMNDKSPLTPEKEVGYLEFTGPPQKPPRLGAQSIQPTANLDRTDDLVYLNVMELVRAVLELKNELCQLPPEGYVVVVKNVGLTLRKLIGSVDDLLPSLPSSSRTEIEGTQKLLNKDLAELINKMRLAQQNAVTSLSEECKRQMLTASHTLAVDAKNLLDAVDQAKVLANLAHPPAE
Cyclin-dependent kinase 1/cyclin B1, sequence (P06493 whole entry): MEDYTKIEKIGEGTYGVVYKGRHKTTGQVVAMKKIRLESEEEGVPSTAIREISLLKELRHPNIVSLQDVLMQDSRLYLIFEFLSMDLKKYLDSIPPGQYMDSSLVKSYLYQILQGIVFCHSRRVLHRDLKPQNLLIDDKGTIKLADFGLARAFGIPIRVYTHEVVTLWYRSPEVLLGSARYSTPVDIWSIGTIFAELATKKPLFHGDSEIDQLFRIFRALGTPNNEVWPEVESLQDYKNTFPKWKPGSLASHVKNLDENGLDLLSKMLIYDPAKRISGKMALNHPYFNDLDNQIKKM
Cyclin-dependent kinase 1/cyclin B1, sequence (P14635 whole entry, further chain): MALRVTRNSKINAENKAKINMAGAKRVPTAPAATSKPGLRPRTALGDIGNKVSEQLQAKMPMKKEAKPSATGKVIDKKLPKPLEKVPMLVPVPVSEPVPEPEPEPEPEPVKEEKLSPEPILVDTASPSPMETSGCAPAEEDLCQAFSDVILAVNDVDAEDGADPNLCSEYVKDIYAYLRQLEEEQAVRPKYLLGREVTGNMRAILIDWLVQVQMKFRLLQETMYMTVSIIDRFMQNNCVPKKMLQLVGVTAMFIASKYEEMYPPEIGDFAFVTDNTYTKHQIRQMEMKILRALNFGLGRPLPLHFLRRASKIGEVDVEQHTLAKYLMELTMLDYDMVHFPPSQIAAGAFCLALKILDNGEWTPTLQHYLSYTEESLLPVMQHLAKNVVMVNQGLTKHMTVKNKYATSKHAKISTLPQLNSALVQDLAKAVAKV

The term IC50 denotes the concentration that inhibits the measured activity by half. For `COc1cc(N2CCN(C)CC2)ccc1Nc1ncc2c(n1)N(C)c1ccccc1C(=O)N2`, the half-maximal inhibitory concentration (IC50) in series [1] was above 10 µM.

Turning to `COc1cc(N2CCN(C)CC2)ccc1Nc1ncc2c(n1)N(C)c1ncsc1C(=O)N2`, in series [1], the IC50 was above 10 µM.

On to `COc1cc(N2CCN(C)CC2)c(C)cc1Nc1ncc2c(n1)N(C)c1sc(C)nc1C(=O)N2C`, for which, in [2], the IC50 was 7.7 µM.

By Papp A→B is commonly meant the apparent permeability from the apical to the basolateral side of a cell layer. For orientation: efflux ratio means the permeability from basolateral to apical divided by that in the opposite direction, in the common usage. As to `CCN1C(=O)c2nc(C)sc2N(C)c2nc(Nc3ccc(N4CCC(N5CCN(C)CC5)CC4)cc3OC)ncc21`, in series [2], the IC50 worked out at 0.93 µM. For the same compound, the result in series [3] was Active. Further, in [4], the outcome was inactive. The Papp A→B in [5] was 8.3 ×10⁻⁶ cm/s. Also, the efflux ratio in [6] was 2.2.

On to `CCOc1cc(N2CCN(C)CC2)ccc1Nc1ncc2c(n1)N(C)c1sc(C)nc1C(=O)N2C`, for which the IC50 in [2] came to 6.1 µM.

Consider `COc1cc(N2CCN(S(C)(=O)=O)CC2)ccc1Nc1ncc2c(n1)N(C)c1sc(C)nc1C(=O)N2C`, for which the IC50 in [2] is above 10 µM.

As for `COc1cc2c(cc1Nc1ncc3c(n1)N(C)c1sc(C)nc1C(=O)N3C)CN(C)CC2`, in series [2], the IC50 is above 10 µM.

In the case of `CNC(=O)c1ccc(Nc2ncc3c(n2)N(C)c2sc(C)nc2C(=O)N3C)cc1`, in series [2], the IC50 was found to be 5.9 µM.

In the case of `Cc1nc2c(s1)N(C)c1nc(Nc3ccc4c(c3)CCC(=O)N4)ncc1N(C)C2=O`, the IC50 in series [2] is above 10 µM.

As to `COc1cc(N2CCN(C)CC2)ccc1Nc1ncc2c(n1)N(C)c1cn(C)nc1C(=O)N2`, the IC50 in series [1] was 0.123 µM.

Consider `COc1cc(N2CCN(CCO)CC2)ccc1Nc1ncc2c(n1)N(C)c1sc(C)nc1C(=O)N2C`, for which the IC50 in series [2] is above 10 µM.

With `COc1cc(N2CCC(N3CCN(C)CC3)CC2)ccc1Nc1ncc2c(n1)N(C)c1oc(C)nc1C(=O)N2C`, the IC50 was above 10 µM in [2] and 0.525 µM in series [1].

Regarding `COc1cc(C2CCN(C)CC2)ccc1Nc1ncc2c(n1)N(C)c1sc(C)nc1C(=O)N2C`, in [2], the IC50 was 3.7 µM. Besides, the outcome in series [3] was Active. In [4], the outcome was inactive.

In the case of `COc1cc(C(=O)N2CCC(N3CCN(C)CC3)CC2)ccc1Nc1ncc2c(n1)N(C)c1sc(C)nc1C(=O)N2C`, the IC50 in series [2] was above 10 µM.

For orientation: half-life means how long it takes for the measured level to halve. The term Tmax denotes the time from dosing to the highest level. One may read the bioavailability as the share of a dose that reaches the circulation, judged against a reference dose that is usually intravenous. Lower therefore signals poor availability. A word on the AUC(0-inf): it is the area under the concentration-time curve extrapolated to infinity. Read a low AUC(0-inf) as less exposure. The term clearance denotes a measure of how efficiently the substance is removed, as volume per time. The term Cmax denotes the highest concentration seen after dosing. In the case of `COc1cc(N2CCC(N3CCN(C)CC3)CC2)ccc1Nc1ncc2c(n1)N(C)c1sc(C)nc1C(=O)N2C`, the half-life in series [7] is 5.29 h. Also, the inhibition entry in [8] was “inactive”. Further, the result in [9], in series [4] and in series [20] was inactive. Moreover, in series [10], the Tmax amounted to 4 h. In series [11], this compound showed a bioavailability of 18.3%. This compound also came in with an AUC(0-inf) in series [12] of 1820 ng·h/mL. Also, the inhibition result in [13], in series [18] and in series [19] was “Active” in each case. For the same compound, the result in [3] was Active. Moreover, the clearance in series [14] turned out to be 18.5 mL/min/kg. Further, the Vd in [15] stood at 4.07 L/kg. For the same compound, the Cmax in series [16] was 420 nM. Also, the Papp A→B in series [5] was determined as 5.8 ×10⁻⁶ cm/s. Further, in series [17], the Activity result was “Dose-dependent effect”.

On to `COc1cc(N2CCNCC2)ccc1Nc1ncc2c(n1)N(C)c1sc(C)nc1C(=O)N2C`, for which the IC50 in series [2] is 2.5 µM. The outcome in series [3] was Active. Moreover, the outcome in series [4] was inactive.

On to `CCN1c2nc(Nc3ccc(N4CCC(N5CCN(C)CC5)CC4)cc3OC)ncc2N(C)C(=O)c2nc(C)sc21`, for which the IC50 in [2] was above 10 µM.

With `CNC(=O)c1ccccc1Nc1cc(Nc2ccc(N3CCOCC3)cc2OC)ncc1C(F)(F)F`, the outcome in series [9] and in [20] was Active.

Turning to `CNC(=O)c1ccc(Nc2ncc(C(F)(F)F)c(NCc3nccnc3N(C)S(C)(=O)=O)n2)cc1`, the inhibition entry in series [21], in series [22], in [23] and in [25] was “Active” throughout. The result in series [24] and in series [20] was Active.

`COc1cc(N2CCC(N3CCN(C)CC3)CC2)ccc1Nc1ncc2c(n1)N(C)c1sc(-c3ccccc3)nc1C(=O)N2C` returned an IC50 in [1] above 10 µM.

Regarding `COc1cc(N2CCN(C)CC2)ccc1Nc1ncc2c(n1)N(C)c1sc(C)nc1C(=O)N2C`, the IC50 in series [2] was 2.3 µM. Moreover, in [3], the result was Active. Also, in series [4], the outcome was inactive.

Take `Cc1nc2c(s1)N(C)c1nc(Nc3ccc(N4CCN(C)CC4)cc3OCCO)ncc1N(C)C2=O`: the midpoint of inhibition in series [1], the IC50, lay at 0.0465 µM.

With `CNC(=O)c1ccc(Nc2ncc3c(n2)N(C)c2sc(C)nc2C(=O)N3C)c(OC)c1`, the IC50 in [2] was above 10 µM.

`CS(=O)(=O)c1cccc(CNc2nc(Nc3ccc4c(c3)CCC(=O)N4)ncc2C(F)(F)F)c1`: the IC50 in [26], in series [27], in series [28] and in [29] was below 1 µM each time. Besides, in [20], the result was Active.
